From the supplement of paper PMC9938120

Columns and labels:
Test in all cases: drug sensitivity score (DSS3, normalised partial AUC of % inhibition dose-response) (DSS (score)); higher = more sensitive (stronger inhibition of viability); extreme values may be limits of the assay
FMOC03 = patient-derived mucinous ovarian cancer cells; conditions: 72 h; library: FO5A; assay format: 2D, 384-well, CellTiter-Glo
How it was run: (§1)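 Early-passage (under 10) patient-derived ovarian cancer cells were dispensed onto 384-well flat clear-bottom plates pre-plated with compounds at five concentrations spanning a 10,000-fold range, then incubated 72 h at 37 °C, 5% CO2. Viability was read with CellTiter-Glo, and the data were processed in Breeze. The drug sensitivity score is a partial area under the percent-inhibition dose-response curve divided by the log of the upper asymptote, with higher values meaning greater sensitivity.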

FMOC04 = patient-derived high-grade serous ovarian cancer cells; conditions: 72 h; library: FO5A; assay format: 2D, 384-well, CellTiter-Glo
How it was run: as §1

FMOC24 = patient-derived high-grade serous ovarian cancer cells; conditions: 72 h; library: FO5A; assay format: 2D, 384-well, CellTiter-Glo
How it was run: as §1

FMOC27 = patient-derived low-grade serous ovarian cancer cells; conditions: 72 h; library: FO5A; assay format: 2D, 384-well, CellTiter-Glo
How it was run: as §1

FMOC14 = patient-derived high-grade serous ovarian cancer cells; conditions: 72 h; library: FO5A; assay format: 2D, 384-well, CellTiter-Glo
How it was run: as §1

FMOC28 = patient-derived low-grade serous ovarian cancer cells; conditions: 72 h; library: FO5A; assay format: 2D, 384-well, CellTiter-Glo
How it was run: as §1

FMOC25_1 = patient-derived low-grade serous ovarian cancer cells; conditions: 72 h; library: FO4B; assay format: 2D, 384-well, CellTiter-Glo
How it was run: as §1

FMOC02_1 = patient-derived low-grade serous ovarian cancer cells; conditions: 72 h; library: FO5A; assay format: 2D, 384-well, CellTiter-Glo
How it was run: as §1

FMOC09 = patient-derived high-grade serous ovarian cancer cells; conditions: 72 h; library: FO5A; assay format: 2D, 384-well, CellTiter-Glo
How it was run: as §1

FMOC17 = patient-derived low-grade serous ovarian cancer cells; conditions: 72 h; library: FO5A; assay format: 2D, 384-well, CellTiter-Glo
How it was run: as §1

FMOC11 = patient-derived high-grade serous ovarian cancer cells; conditions: 72 h; library: FO5A; assay format: 2D, 384-well, CellTiter-Glo
How it was run: as §1

FMOC25_2 = patient-derived low-grade serous ovarian cancer cells; conditions: 72 h; library: FO5A; assay format: 2D, 384-well, CellTiter-Glo
How it was run: as §1

FMOC22 = patient-derived mucinous ovarian cancer cells; conditions: 72 h; library: FO5A; assay format: 2D, 384-well, CellTiter-Glo
How it was run: as §1

FMOC02_2 = patient-derived low-grade serous ovarian cancer cells; conditions: 72 h; library: FO5A; assay format: 2D, 384-well, CellTiter-Glo
How it was run: as §1

FMOC02_3 = patient-derived low-grade serous ovarian cancer cells; conditions: 72 h; library: FO5A; assay format: 2D, 384-well, CellTiter-Glo
How it was run: as §1

FMOC06 = patient-derived mucinous ovarian cancer cells; conditions: 72 h; library: FO5A; assay format: 2D, 384-well, CellTiter-Glo
How it was run: as §1

Compound | drug sensitivity score (FMOC03) | drug sensitivity score (FMOC04) | drug sensitivity score (FMOC24) | drug sensitivity score (FMOC27) | drug sensitivity score (FMOC14) | drug sensitivity score (FMOC28) | drug sensitivity score (FMOC25_1) | drug sensitivity score (FMOC02_1) | drug sensitivity score (FMOC09) | drug sensitivity score (FMOC17) | drug sensitivity score (FMOC11) | drug sensitivity score (FMOC25_2) | drug sensitivity score (FMOC22) | drug sensitivity score (FMOC02_2) | drug sensitivity score (FMOC02_3) | drug sensitivity score (FMOC06)
Cn1cncc1[C@@](N)(c1ccc(Cl)cc1)c1ccc2c(c1)c(-c1cccc(Cl)c1)cc(=O)n2C [Tipifarnib] | 6 | 4.45 | 4.1 | 3.3 | 3.5 | 5.8 | 9.7 | 6.9 | 2.2 | 1.8 | 5.3 | 9.8 | 5.3 | 6.2 | 9.5 | 8.8
CC(C)c1c(C(=O)Nc2ccccc2)c(-c2ccccc2)c(-c2ccc(F)cc2)n1CC[C@@H](O)C[C@@H](O)CC(=O)O [Atorvastatin] | 2.9 | 0.65 | 6.75 | 0 | 3.2 | 5.3 | 0.6 | 1 | 4.9 | 2.9 | 3.1 | 3.2 | 4.5 | 1.9 | 1.5 | 1.6
C[C@]12CC[C@H](O)CC1=CC[C@@H]1[C@@H]2CC[C@]2(C)C(c3cccnc3)=CC[C@@H]12 [Abiraterone] | 0 | 0.05 | 4.9 | 0 | 2.3 | 0.6 | 0.3 | 0 | 0 | 0 | 0 | 0.6 | 0 | 1.3 | 0 | 0.1
CC1(C)CNc2cc(NC(=O)c3cccnc3NCc3ccncc3)ccc21 [Motesanib] | 0 | 0 | 0.15 | 0.6 | 0 | 2.4 | 1 | 0 | 0 | 0 | 0.2 | 0.1 | 0 | 0.5 | 2.9 | 1.1
COc1cc2c(NC3CCN(C(C)C)CC3)nc(N3CCC(F)(F)CC3)nc2cc1OCCCN1CCCC1 [UNC0642] | 0 | 1.2 | 4.3 | 0 | 0.1 | 0 | 0 | 4 | 0.2 | 2.1 | 2.3 | 0.7 | 0.1 | 1.1 | 2.3 | 0.2
CCOc1ccn(-c2ccc(F)cc2)c(=O)c1C(=O)Nc1ccc(Oc2ccnc(N)c2Cl)c(F)c1 | 0 | 0 | 0 | 0 | 0 | 0 | 0 | 0 | 0 | 0 | 0 | 0 | 0 | 0.9 | 0 | 0
O=c1[nH]c(C2CCCN2)nc2c1oc1ccc(Cl)cc12 (stereo not drawn) | 0.3 | 0 | 0 | 0 | 0 | 4.4 | 2 | 2.7 | 0 | 0 | 0.4 | 0 | 0 | 0 | 3.9 | 0
Nc1nc(Cl)nc2c1ncn2[C@H]1C[C@H](O)[C@@H](CO)O1 [Cladribine] | 0.5 | 0.2 | 0 | 2.3 | 0 | 0.3 | 2.4 | 7 | 1.8 | 0.4 | 0.8 | 7.2 | 3.9 | 3.3 | 4 | 0.2
NC(=O)c1cccc(-c2cccc(OC(=O)NC3CCCCC3)c2)c1 [URB597] | 0 | 0 | 0 | 0 | 0 | 0 | 0 | 0 | 0 | 0 | 0 | 0 | 0 | 0 | 0.2 | 0
Nc1nc(F)nc2c1ncn2[C@@H]1O[C@H](CO)[C@@H](O)[C@@H]1O [Fludarabine] | 0 | 0 | 0 | 0 | 0 | 0 | 4.3 | 3 | 0.8 | 0 | 0 | 1.9 | 1.3 | 0.5 | 2 | 0.9
O=c1sn(-c2cccc3ccccc23)c(=O)n1Cc1ccccc1 [Tideglusib] | 0 | 0 | 0 | 0 | 0 | 0 | 0.3 | 0 | 0 | 0 | 0 | 0 | 0 | 1 | 0 | 0
N#Cc1ccc(COC[C@H]2O[C@@H](n3c(NCc4ccc(Cl)c(Cl)c4)nc4c(N)ncnc43)[C@H](O)[C@@H]2O)cc1 | 6 | 0.95 | 2.1 | 1.6 | 2.5 | 0 | 6.6 | 7.6 | 2 | 5.6 | 3.2 | 0 | 4.2 | 2.6 | 6.6 | 5.5
O=C(c1cccc(Cl)c1F)N1CCN(Cc2cccc(Nc3nccs3)n2)CC1 [MK-8745] | 1.3 | 1.3 | 0.2 | 0 | 0.2 | 5.8 | 0 | 7.1 | 0.2 | 2.1 | 4 | 4 | 1.8 | 6.1 | 5.7 | 0
